Data reported in PMC12749166, “Fragment-based drug design of a bacterial kinase inhibitor capable of increasing the antibiotic sensitivity of clinical isolates” (Communications Chemistry, 2025).

Legend:
P. aeruginosa C0307 [1] = assay: Checkerboard assay of 83 with kanamycin A; format: cell-based; conditions: for checkerboard well reading (growth): Supp. Figure 3 B
P. aeruginosa C0307 [2] = assay: Bacterial growth kinetics over 24 h; format: cell-based
APH(3’)-IIb = target: T1, APH(3’)-IIb (Pseudomonas aeruginosa, UniProt Q9HWR2, M95L); assay: biochemical
T1 sequence (Q9HWR2 1-268 M95L): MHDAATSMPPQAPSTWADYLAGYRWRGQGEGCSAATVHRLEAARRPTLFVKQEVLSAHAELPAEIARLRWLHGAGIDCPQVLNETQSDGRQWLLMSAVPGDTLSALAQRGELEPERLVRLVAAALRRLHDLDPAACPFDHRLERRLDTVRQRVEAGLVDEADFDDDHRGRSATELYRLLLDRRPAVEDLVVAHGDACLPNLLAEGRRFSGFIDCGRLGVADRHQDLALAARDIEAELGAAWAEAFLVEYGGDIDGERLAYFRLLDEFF
Protocol: Plates were placed in a Clariostar plate reader. […] The initial rate constants (kss) were then measured using a linear regression of the absorbance as a function of time using GraFit software (v. 7.0.3, Erithacus software). Inhibition constants were determined by global fittings of the dependences of kss as a function of ATP and inhibitor concentrations, using a competitive inhibition equation and GraFit software. The standard error of the Ki value was determined in the GraFit software based on the global fitting of four experimental series.

Clc1cnc2[nH]ccc2c1-c1ccn[nH]1 [Compound 83]
checkerboard well reading (growth) (P. aeruginosa C0307 [1]; 83 1 µg.mL-1, kanamycin A 128 µg.mL-1): 0.042
checkerboard well reading (growth) (P. aeruginosa C0307 [1]; 83 2 µg.mL-1, kanamycin A 0 µg.mL-1): 1.144
checkerboard well reading (growth) (P. aeruginosa C0307 [1]; 83 2 µg.mL-1, kanamycin A 2 µg.mL-1): 1.163
checkerboard well reading (growth) (P. aeruginosa C0307 [1]; 83 2 µg.mL-1, kanamycin A 4 µg.mL-1): 1.143
checkerboard well reading (growth) (P. aeruginosa C0307 [1]; 83 2 µg.mL-1, kanamycin A 8 µg.mL-1): 1.140
checkerboard well reading (growth) (P. aeruginosa C0307 [1]; 83 2 µg.mL-1, kanamycin A 16 µg.mL-1): 1.101
checkerboard well reading (growth) (P. aeruginosa C0307 [1]; 83 2 µg.mL-1, kanamycin A 32 µg.mL-1): 1.112
checkerboard well reading (growth) (P. aeruginosa C0307 [1]; 83 2 µg.mL-1, kanamycin A 64 µg.mL-1): 0.172
checkerboard well reading (growth) (P. aeruginosa C0307 [1]; 83 2 µg.mL-1, kanamycin A 128 µg.mL-1): 0.038
checkerboard well reading (growth) (P. aeruginosa C0307 [1]; 83 4 µg.mL-1, kanamycin A 0 µg.mL-1): 1.132
checkerboard well reading (growth) (P. aeruginosa C0307 [1]; 83 4 µg.mL-1, kanamycin A 2 µg.mL-1): 1.139
checkerboard well reading (growth) (P. aeruginosa C0307 [1]; 83 4 µg.mL-1, kanamycin A 4 µg.mL-1): 1.161
checkerboard well reading (growth) (P. aeruginosa C0307 [1]; 83 4 µg.mL-1, kanamycin A 8 µg.mL-1): 1.123
checkerboard well reading (growth) (P. aeruginosa C0307 [1]; 83 4 µg.mL-1, kanamycin A 16 µg.mL-1): 1.163
checkerboard well reading (growth) (P. aeruginosa C0307 [1]; 83 4 µg.mL-1, kanamycin A 32 µg.mL-1): 1.149
checkerboard well reading (growth) (P. aeruginosa C0307 [1]; 83 4 µg.mL-1, kanamycin A 64 µg.mL-1): 0.250
checkerboard well reading (growth) (P. aeruginosa C0307 [1]; 83 4 µg.mL-1, kanamycin A 128 µg.mL-1): 0.041
checkerboard well reading (growth) (P. aeruginosa C0307 [1]; 83 8 µg.mL-1, kanamycin A 0 µg.mL-1): 1.480
checkerboard well reading (growth) (P. aeruginosa C0307 [1]; 83 8 µg.mL-1, kanamycin A 2 µg.mL-1): 1.120
checkerboard well reading (growth) (P. aeruginosa C0307 [1]; 83 8 µg.mL-1, kanamycin A 4 µg.mL-1): 1.107
checkerboard well reading (growth) (P. aeruginosa C0307 [1]; 83 8 µg.mL-1, kanamycin A 8 µg.mL-1): 1.138
checkerboard well reading (growth) (P. aeruginosa C0307 [1]; 83 8 µg.mL-1, kanamycin A 16 µg.mL-1): 1.202
checkerboard well reading (growth) (P. aeruginosa C0307 [1]; 83 8 µg.mL-1, kanamycin A 32 µg.mL-1): 1.141
checkerboard well reading (growth) (P. aeruginosa C0307 [1]; 83 8 µg.mL-1, kanamycin A 64 µg.mL-1): 0.170
checkerboard well reading (growth) (P. aeruginosa C0307 [1]; 83 8 µg.mL-1, kanamycin A 128 µg.mL-1): 0.040
checkerboard well reading (growth) (P. aeruginosa C0307 [1]; 83 16 µg.mL-1, kanamycin A 0 µg.mL-1): 1.350
checkerboard well reading (growth) (P. aeruginosa C0307 [1]; 83 16 µg.mL-1, kanamycin A 2 µg.mL-1): 1.145
checkerboard well reading (growth) (P. aeruginosa C0307 [1]; 83 16 µg.mL-1, kanamycin A 4 µg.mL-1): 1.177
checkerboard well reading (growth) (P. aeruginosa C0307 [1]; 83 16 µg.mL-1, kanamycin A 8 µg.mL-1): 1.181
checkerboard well reading (growth) (P. aeruginosa C0307 [1]; 83 16 µg.mL-1, kanamycin A 16 µg.mL-1): 1.121
checkerboard well reading (growth) (P. aeruginosa C0307 [1]; 83 16 µg.mL-1, kanamycin A 32 µg.mL-1): 1.161
checkerboard well reading (growth) (P. aeruginosa C0307 [1]; 83 16 µg.mL-1, kanamycin A 64 µg.mL-1): 0.077
checkerboard well reading (growth) (P. aeruginosa C0307 [1]; 83 16 µg.mL-1, kanamycin A 128 µg.mL-1): 0.041
checkerboard well reading (growth) (P. aeruginosa C0307 [1]; 83 32 µg.mL-1, kanamycin A 0 µg.mL-1): 1.542
checkerboard well reading (growth) (P. aeruginosa C0307 [1]; 83 32 µg.mL-1, kanamycin A 2 µg.mL-1): 1.314
checkerboard well reading (growth) (P. aeruginosa C0307 [1]; 83 32 µg.mL-1, kanamycin A 4 µg.mL-1): 1.373
checkerboard well reading (growth) (P. aeruginosa C0307 [1]; 83 32 µg.mL-1, kanamycin A 8 µg.mL-1): 1.519
checkerboard well reading (growth) (P. aeruginosa C0307 [1]; 83 32 µg.mL-1, kanamycin A 16 µg.mL-1): 1.301
checkerboard well reading (growth) (P. aeruginosa C0307 [1]; 83 32 µg.mL-1, kanamycin A 32 µg.mL-1): 1.153
checkerboard well reading (growth) (P. aeruginosa C0307 [1]; 83 32 µg.mL-1, kanamycin A 64 µg.mL-1): 0.041
checkerboard well reading (growth) (P. aeruginosa C0307 [1]; 83 32 µg.mL-1, kanamycin A 128 µg.mL-1): 0.042
checkerboard well reading (growth) (P. aeruginosa C0307 [1]; 83 64 µg.mL-1, kanamycin A 0 µg.mL-1): 1.274
checkerboard well reading (growth) (P. aeruginosa C0307 [1]; 83 64 µg.mL-1, kanamycin A 2 µg.mL-1): 1.335
checkerboard well reading (growth) (P. aeruginosa C0307 [1]; 83 64 µg.mL-1, kanamycin A 4 µg.mL-1): 1.176
checkerboard well reading (growth) (P. aeruginosa C0307 [1]; 83 64 µg.mL-1, kanamycin A 8 µg.mL-1): 1.404
checkerboard well reading (growth) (P. aeruginosa C0307 [1]; 83 64 µg.mL-1, kanamycin A 16 µg.mL-1): 1.087
checkerboard well reading (growth) (P. aeruginosa C0307 [1]; 83 64 µg.mL-1, kanamycin A 32 µg.mL-1): 0.939
checkerboard well reading (growth) (P. aeruginosa C0307 [1]; 83 64 µg.mL-1, kanamycin A 64 µg.mL-1): 0.044
checkerboard well reading (growth) (P. aeruginosa C0307 [1]; 83 64 µg.mL-1, kanamycin A 128 µg.mL-1): 0.044
checkerboard well reading (growth) (P. aeruginosa C0307 [1]; 83 128 µg.mL-1, kanamycin A 0 µg.mL-1): 1.377
checkerboard well reading (growth) (P. aeruginosa C0307 [1]; 83 128 µg.mL-1, kanamycin A 2 µg.mL-1): 1.277
checkerboard well reading (growth) (P. aeruginosa C0307 [1]; 83 128 µg.mL-1, kanamycin A 4 µg.mL-1): 1.324
checkerboard well reading (growth) (P. aeruginosa C0307 [1]; 83 128 µg.mL-1, kanamycin A 8 µg.mL-1): 1.318
checkerboard well reading (growth) (P. aeruginosa C0307 [1]; 83 128 µg.mL-1, kanamycin A 16 µg.mL-1): 0.963
checkerboard well reading (growth) (P. aeruginosa C0307 [1]; 83 128 µg.mL-1, kanamycin A 32 µg.mL-1): 0.366
checkerboard well reading (growth) (P. aeruginosa C0307 [1]; 83 128 µg.mL-1, kanamycin A 64 µg.mL-1): 0.038
checkerboard well reading (growth) (P. aeruginosa C0307 [1]; 83 128 µg.mL-1, kanamycin A 128 µg.mL-1): 0.043
Impact of 83 alone on bacterial growth (P. aeruginosa C0307 [1]; absence of antibiotics, 83 from 0 to 128 µg mL^−1 (585 µM)): no impact on bacterial growth
Delay of the onset of growth (P. aeruginosa C0307 [2]; 8 µg mL^−1 kanamycin A, 83 at 500 µM): around 6 h
Extension of latency (P. aeruginosa C0307 [2]; 16 µg mL^−1 kanamycin A, 500 µM 83): 12 h
Growth (P. aeruginosa C0307 [2]; 32 µg mL^−1 kanamycin A, 500 µM 83, 24 h of incubation): growth did not begin after 24 h of incubation
Toxicity of 83 alone on bacteria (P. aeruginosa C0307 [2]; up to 500 µM (109 µg mL^−1), no kanamycin A, 24 h): no toxicity
inhibition at 100 µM (APH(3’)-IIb): 91%
